Assay results taken from patent publication US10823738B2, “Methods for breast cancer treatment” (George Mason University, priority 2015, dated 2020).

Tests used:
breast cancer = test: Bayesian analysis (MCMC simulation on I-SPY 2 data) of the predicted probability of Phase III success; format: in vivo, human
Description: Adaptive design trials are constructed on the basis of assigning patients to certain signature groups such as signature biomarker groups, the goal being to determine predictive probabilities of success in Phase III trials for various targeted therapeutics. In essence, the design trials provide data that facilitates the determination of which patient biomarker signatures respond to various regimens. A regimen would “graduate” from trial if probability of statistical significance in Phase III reaches 85% for any signature, provided that a minimum of 60 patients have been assigned to the regimen. Neratinib was one of 7 agents tested in the experimental arms of the ISPY-2 TRIAL to date.
Bayesian analysis was completed using the MCMC simulation based on I-SPY 2 data with the following model: pCR˜HR+HER2+biomarker+treatment+treatment*HR+treatment*HER2+treatment*biomarker. No multiple comparison adjustments were applied. The Bayesian analytical engine developed by Don Berry (Yee et al J Clin Oncol. 2012 Dec. 20; 30(36):4584-6), is a mathematical approach that evaluates the clinical performance of a drug (in this case, neratinib) in both the treatment arm (in this case tumor shrinkage estimates by size changes observed by MRI), coupled with complete pathological response (pCR) as measured as the final response determinant, and the response of the predicate therapy in the control arm. This evaluation determined success of a given therapy for a Phase III trial, and in this case, it was determined that phosphorylation of EGFR at Y1173 was not only statistically significant at predicting or assessing response to neratinib in all patients regardless of hormone receptor levels and HER2 levels (HER2+, HER2− and HR+ and HR−), but when patients with high levels of phosphorylated EGFR (Y1173) were added to the HR−/HER2+ subgroup, the prevalence of ‘biomarker-positive’ patients increased by 50%, while increasing the predicted probability of Phase III success to 90%. […]

HER2− breast cancer = test: I-SPY 2 TRIAL: pCR response of breast cancer patients treated with veliparib; format: in vivo, human
Description: Currently, treatment of Stage II/III breast cancer involves neoadjuvant treatment (pre-surgical) with drug regimens that may include therapies targeting specific molecular defects. Disclosed herein are novel methods for treatment of breast cancer comprising identifying biomarkers that predict response to therapeutic agents used in the pre-surgical stage of treatment of cancer. Subjects providing samples (pre-treatment biopsies) for studies described herein were characterized based on measurement of estrogen/hormone receptor (HR) and HER2 (c-erbB2), and were described by HER2−/HR−. HER2+/HR+. HER2+/HR−, HER2−/HR+ phenotypes. Response to treatment was determined by the amount of tumor shrinkage and a lack of appreciable tumor evident at surgery. […] This microarray allows for quantitative measurement of the amount of proteins and/or phosphorylated proteins in the tumor or cancerous cells from pretreatment sample, for example from biopsy specimens of women with Stage II/III breast cancer. […]
This example tested the hypothesis that the response to the PARP inhibitor, veliparib, was predicted by specific biomarkers. […] Various proteins were evaluated as biomarkers of veliparib response using reverse phase protein microarray (RPMA) data from pre-treatment laser capture microdissection (LCM) purified tumor epithelium. […]

Row | SMILES | Phase III success (predicted probability) (breast cancer; EGFR Y1173 used as a single marker, all patients) | Phase III success (predicted probability) (breast cancer; HER2+/HR− status as measured by immunohistochemical methods) | predicted probability of Phase III success (breast cancer; patients with high levels of phosphorylated EGFR (Y1173) added to the HR−/HER2+ subgroup) | clinical response (HER2− breast cancer; HER2−/HR− subtype) | complete pathological response (pCR) (HER2− breast cancer; women with both HR+ and HR− tumors)
1 | CCOc1cc2ncc(C#N)c(Nc3ccc(OCc4ccccn4)c(Cl)c3)c2cc1NC(=O)/C=C/CN(C)C [neratinib] | 93% | 87% | 90% | – | –
2 | C[C@]1(c2nc3c(C(N)=O)cccc3[nH]2)CCCN1 [veliparib] | – | – | – | statistically significant clinical response | pCR was observed
